Source: patent US9120812B2, “Pyrimidooxazocine derivatives as mTOR-inhibitors” (SANOFI, priority 2012, dated 2015)

Columns and labels:
U87MG tumour cells = assay: Test of in vitro proliferation of U87MG tumour cells; assay type: cell-based; settings: Homo sapiens, U-87 MG, 72 h, U87MG cells, 72 hours; read-out: U87 Cell Proliferation IC50
Description: Model 4: Test of in vitro Proliferation of U87MG Tumour Cells.
The cell growth is determined with the reagent CellTiter 96 AQueous One Solution Cell Proliferation Assay from Promega (Cat. No. G3581).

[1] = molecular target: mTOR (human recombinant aa mTOR 1360-2549) (Homo sapiens (Human), UniProt P42345); assay: mTOR enzymatic test by TR-FRET (phosphorylation of GFP-4EBP1); assay type: biochemical
mTOR (human recombinant aa mTOR 1360-2549), sequence (P42345 1360-2549): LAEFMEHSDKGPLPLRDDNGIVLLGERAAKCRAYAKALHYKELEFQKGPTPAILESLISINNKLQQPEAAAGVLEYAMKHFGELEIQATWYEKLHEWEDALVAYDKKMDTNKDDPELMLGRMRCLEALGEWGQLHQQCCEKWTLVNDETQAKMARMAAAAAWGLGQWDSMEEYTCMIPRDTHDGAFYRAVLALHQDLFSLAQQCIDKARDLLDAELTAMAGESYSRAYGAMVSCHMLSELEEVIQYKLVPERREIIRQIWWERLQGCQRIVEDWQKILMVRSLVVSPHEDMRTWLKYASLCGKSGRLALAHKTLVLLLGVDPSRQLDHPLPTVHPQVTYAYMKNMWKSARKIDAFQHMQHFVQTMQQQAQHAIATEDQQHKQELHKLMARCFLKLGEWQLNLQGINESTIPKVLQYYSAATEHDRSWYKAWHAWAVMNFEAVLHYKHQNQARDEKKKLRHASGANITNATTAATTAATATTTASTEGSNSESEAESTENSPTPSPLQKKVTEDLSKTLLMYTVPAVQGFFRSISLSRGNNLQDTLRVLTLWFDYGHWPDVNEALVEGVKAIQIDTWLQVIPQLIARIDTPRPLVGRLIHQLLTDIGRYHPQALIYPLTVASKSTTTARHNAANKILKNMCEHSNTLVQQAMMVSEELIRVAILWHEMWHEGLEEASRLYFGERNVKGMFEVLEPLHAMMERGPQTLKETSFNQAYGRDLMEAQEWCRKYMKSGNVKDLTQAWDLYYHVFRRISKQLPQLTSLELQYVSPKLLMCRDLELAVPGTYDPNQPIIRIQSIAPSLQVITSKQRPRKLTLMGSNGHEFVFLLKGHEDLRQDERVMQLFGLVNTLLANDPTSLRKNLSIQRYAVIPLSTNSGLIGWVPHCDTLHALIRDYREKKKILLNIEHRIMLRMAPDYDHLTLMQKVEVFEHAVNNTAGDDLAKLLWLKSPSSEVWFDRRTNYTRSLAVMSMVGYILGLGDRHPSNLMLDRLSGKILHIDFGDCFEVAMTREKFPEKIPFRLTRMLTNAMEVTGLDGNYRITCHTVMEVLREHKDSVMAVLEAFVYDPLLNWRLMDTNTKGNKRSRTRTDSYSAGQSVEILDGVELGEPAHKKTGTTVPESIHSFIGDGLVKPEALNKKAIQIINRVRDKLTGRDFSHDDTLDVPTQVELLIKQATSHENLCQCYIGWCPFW
Procedure, shortened: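 TR-FRET detection of GFP-4EBP1 phosphorylation by a terbium-labelled anti-phospho-Thr46 antibody. Kinase reaction ran 30 min at room temperature, was quenched with EDTA (10 mM final) plus Tb-antibody (2 nM final) and left 60 min. Emission at 520 and 490 nm after 340 nm excitation, reported as the 520/490 ratio.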

Akt-pS473 in U87MG cells = settings: Homo sapiens, U-87 MG, read-out: U87 Akt-pS473 % Inhibition or IC50, nM (IC50), U87MG cells
PI3Kα (p110α/p85α) = PI3Kα (p110α/p85α) (Homo sapiens (Human), UniProt P42336); assay: PI3Kα enzymatic test by measuring the consumption of ATP; assay type: biochemical
PI3Kα (p110α/p85α), sequence (P42336 whole entry): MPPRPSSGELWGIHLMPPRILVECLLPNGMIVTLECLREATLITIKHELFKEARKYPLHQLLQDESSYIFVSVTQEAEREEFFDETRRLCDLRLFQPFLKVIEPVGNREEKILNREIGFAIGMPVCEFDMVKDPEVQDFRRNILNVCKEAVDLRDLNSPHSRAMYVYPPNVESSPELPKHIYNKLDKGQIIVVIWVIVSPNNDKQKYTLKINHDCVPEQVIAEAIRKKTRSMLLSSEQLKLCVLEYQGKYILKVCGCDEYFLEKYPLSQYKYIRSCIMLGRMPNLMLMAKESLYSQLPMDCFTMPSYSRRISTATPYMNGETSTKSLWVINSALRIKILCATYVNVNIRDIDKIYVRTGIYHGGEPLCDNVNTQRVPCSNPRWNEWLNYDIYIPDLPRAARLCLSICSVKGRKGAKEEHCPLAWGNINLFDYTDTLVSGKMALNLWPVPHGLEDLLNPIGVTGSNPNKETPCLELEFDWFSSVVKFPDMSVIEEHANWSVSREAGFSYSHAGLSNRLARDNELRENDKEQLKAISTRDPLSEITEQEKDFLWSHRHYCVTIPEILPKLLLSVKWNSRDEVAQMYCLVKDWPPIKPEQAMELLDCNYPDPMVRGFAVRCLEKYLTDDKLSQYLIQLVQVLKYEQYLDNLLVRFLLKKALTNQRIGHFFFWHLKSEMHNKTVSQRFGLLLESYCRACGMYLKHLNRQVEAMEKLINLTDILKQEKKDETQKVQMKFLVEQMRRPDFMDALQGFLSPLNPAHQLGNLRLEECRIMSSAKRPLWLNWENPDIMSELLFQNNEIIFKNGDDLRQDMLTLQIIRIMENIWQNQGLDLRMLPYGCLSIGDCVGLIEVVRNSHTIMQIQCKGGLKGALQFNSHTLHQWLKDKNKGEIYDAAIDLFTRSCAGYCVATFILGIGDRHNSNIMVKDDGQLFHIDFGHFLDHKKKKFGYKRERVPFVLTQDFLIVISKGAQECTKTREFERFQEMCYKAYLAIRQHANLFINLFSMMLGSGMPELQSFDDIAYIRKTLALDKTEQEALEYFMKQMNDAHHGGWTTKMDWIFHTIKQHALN
PI3Kα (p110α/p85α), sequence (P27986 whole entry partner): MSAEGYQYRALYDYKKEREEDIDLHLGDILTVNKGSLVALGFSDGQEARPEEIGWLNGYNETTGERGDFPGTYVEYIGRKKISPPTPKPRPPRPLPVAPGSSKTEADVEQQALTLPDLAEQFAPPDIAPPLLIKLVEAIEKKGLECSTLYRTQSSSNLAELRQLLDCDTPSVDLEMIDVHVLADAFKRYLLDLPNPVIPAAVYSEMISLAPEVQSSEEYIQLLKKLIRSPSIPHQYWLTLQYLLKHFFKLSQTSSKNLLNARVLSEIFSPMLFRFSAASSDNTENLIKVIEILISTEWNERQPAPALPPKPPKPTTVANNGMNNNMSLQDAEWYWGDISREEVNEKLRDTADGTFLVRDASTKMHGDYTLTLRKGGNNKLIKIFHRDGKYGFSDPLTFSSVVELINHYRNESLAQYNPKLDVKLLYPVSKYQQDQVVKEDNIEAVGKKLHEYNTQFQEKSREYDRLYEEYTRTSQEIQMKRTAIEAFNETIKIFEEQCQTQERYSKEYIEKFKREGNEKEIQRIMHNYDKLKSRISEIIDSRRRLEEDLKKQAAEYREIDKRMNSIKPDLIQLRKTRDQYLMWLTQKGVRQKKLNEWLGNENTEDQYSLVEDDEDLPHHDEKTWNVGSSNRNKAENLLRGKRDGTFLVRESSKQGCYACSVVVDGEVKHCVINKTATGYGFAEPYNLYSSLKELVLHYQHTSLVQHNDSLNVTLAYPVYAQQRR
Procedure, shortened: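 p110α/p85α (1.7 μg/ml) with 50 μM PIP2 and 2 μM ATP in pH 7.5 Tris buffer with EGTA, MgCl2, Chaps, DTT; reaction 90 min. Remaining ATP measured by luciferin/luciferase luminescence; IC50 from threefold serial dilutions spanning at least 10 000-fold.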

Structure (SMILES) | IC50 (U87MG tumour cells) [nM] | IC50 [1] [nM] | IC50 (Akt-pS473 in U87MG cells) [nM] | PI3Ka IC50 (PI3Kα (p110α/p85α)) [nM]
CCN1CC(C)(C)Oc2nc(N3CC4CCC(C3)O4)nc(-c3ccc(NC(=O)Nc4cccc(OC)c4)cc3)c2C1=O [Example 127, 1-{4-[6-Ethyl-8,8-dimethyl-2-(8-oxa-3-azabicyclo[3.2.1]oct-3-yl)-5-oxo-5,6,7,8-tetrahydro-9-oxa-1,3,6-triazabenzocyclohepten-4-yl]phenyl}-3-(3-methoxyphenyl)urea] | 79 | 16 | 24 | 3646
CCN1CC(C)(C)Oc2nc(N3CC4CCC(C3)O4)nc(-c3ccc(NC(=O)NCC4CCS(=O)(=O)C4)c(F)c3)c2C1=O (stereo not drawn) [Example 129, 1-(1,1-Dioxotetrahydro-1λ6-thiophen-3-ylmethyl)-3-{4-[6-ethyl-8,8-dimethyl-2-(8-oxa-3-azabicyclo[3.2.1]oct-3-yl)-5-oxo-5,6,7,8-tetrahydro-9-oxa-1,3,6-triazabenzocyclohepten-4-yl]-2-fluorophenyl}urea] | > 10000 | 1380 | > 3000 | >10000
CCN1CC(C)(C)Oc2nc(N3CC4CCC(C3)O4)nc(-c3ccc(NC(=O)NCC4CCN(C)CC4)c(F)c3)c2C1=O [Example 130, 1-{4-[6-Ethyl-8,8-dimethyl-2-(8-oxa-3-azabicyclo[3.2.1]oct-3-yl)-5-oxo-5,6,7,8-tetrahydro-9-oxa-1,3,6-triazabenzocyclohepten-4-yl]-2-fluorophenyl}-3-(1-methylpiperidin-4-ylmethyl)urea] | > 10000 | 2120 | > 3000 | >10000
CCN1CC(C)(C)Oc2nc(N3CC4CCC(C3)O4)nc(-c3ccc(NC(=O)NCCOC)c(F)c3)c2C1=O [Example 131, 1-{4-[6-Ethyl-8,8-dimethyl-2-(8-oxa-3-azabicyclo[3.2.1]oct-3-yl)-5-oxo-5,6,7,8-tetrahydro-9-oxa-1,3,6-triazabenzocyclohepten-4-yl]-2-fluorophenyl}-3-(2-methoxyethyl)urea] | 5900 | 383 | 1990 | >10000
CCNC(=O)Nc1ccc(-c2nc(N3CC4CCC(C3)O4)nc3c2C(=O)N(C2CCN(C)CC2)CC(C)(C)O3)cc1 [Example 132, 1-{4-[8,8-Dimethyl-6-(1-methylpiperidin-4-yl)-2-(8-oxa-3-azabicyclo[3.2.1]oct-3-yl)-5-oxo-5,6,7,8-tetrahydro-9-oxa-1,3,6-triazabenzocyclohepten-4-yl]phenyl}-3-ethylurea] | > 10000 | 245 | > 3000 | 4320
CCN1CC(C)(C)Oc2nc(N3CC4CCC(C3)O4)nc(-c3ccc(NC(=O)NC4CC4)c(F)c3)c2C1=O [Example 133, 1-Cyclopropyl-3-{4-[6-ethyl-8,8-dimethyl-2-(8-oxa-3-azabicyclo[3.2.1]oct-3-yl)-5-oxo-5,6,7,8-tetrahydro-9-oxa-1,3,6-triazabenzocyclohepten-4-yl]-2-fluorophenyl}urea] | 219 | 33 | 92 | >10000
CCN1CC(C)(C)Oc2nc(N3CC4CCC(C3)O4)nc(-c3ccc(NC(=O)NCC4CCOCC4)c(F)c3)c2C1=O [Example 134, 1-{4-[6-Ethyl-8,8-dimethyl-2-(8-oxa-3-azabicyclo[3.2.1]oct-3-yl)-5-oxo-5,6,7,8-tetrahydro-9-oxa-1,3,6-triazabenzocyclohepten-4-yl]-2-fluorophenyl}-3-(tetrahydropyran-4-ylmethyl)urea] | > 10000 | 3160 | > 3000 | >10000
CCN1CC(C)(C)Oc2nc(N3CC4CCC(C3)O4)nc(-c3ccc(NC(=O)Nc4ccon4)c(F)c3)c2C1=O [Example 135, 1-{4-[6-Ethyl-8,8-dimethyl-2-(8-oxa-3-azabicyclo[3.2.1]oct-3-yl)-5-oxo-5,6,7,8-tetrahydro-9-oxa-1,3,6-triazabenzocyclohepten-4-yl]-2-fluorophenyl}-3-isoxazol-3-ylurea] | 112 | 11 | 26 | 6525
CCN1CC(C)(C)Oc2nc(N3CC4CCC(C3)O4)nc(-c3ccc(NC(=O)Nc4cnc(OC)nc4)c(F)c3)c2C1=O [Example 136, 1-{4-[6-Ethyl-8,8-dimethyl-2-(8-oxa-3-azabicyclo[3.2.1]oct-3-yl)-5-oxo-5,6,7,8-tetrahydro-9-oxa-1,3,6-triazabenzocyclohepten-4-yl]-2-fluorophenyl}-3-(2-methoxypyrimidin-5-yl)urea] | 239 | 34 | 37 | >10000
CCN1CC(C)(C)Oc2nc(N3CC4CCC(C3)O4)nc(-c3ccc(NC(=O)NC4COC4)c(F)c3)c2C1=O [Example 137, 1-{4-[6-Ethyl-8,8-dimethyl-2-(8-oxa-3-azabicyclo[3.2.1]oct-3-yl)-5-oxo-5,6,7,8-tetrahydro-9-oxa-1,3,6-triazabenzocyclohepten-4-yl]-2-fluorophenyl}-3-oxetan-3-ylurea] | 1330 | 29 | 241 | >10000
CCN1CC(C)(C)Oc2nc(N3CC4CCC(C3)O4)nc(-c3ccc(NC(=O)Nc4ccc(F)c(OC)c4)c(F)c3)c2C1=O [Example 138, 1-{4-[6-Ethyl-8,8-dimethyl-2-(8-oxa-3-azabicyclo[3.2.1]oct-3-yl)-5-oxo-5,6,7,8-tetrahydro-9-oxa-1,3,6-triazabenzocyclohepten-4-yl]-2-fluorophenyl}-3-(4-fluoro-3-methoxyphenyl)urea] | 331 | 299 | 105 | >10000
CCN1CC(C)(C)Oc2nc(N3CC4CCC(C3)O4)nc(-c3ccc(NC(=O)Nc4cncc(OC)n4)c(F)c3)c2C1=O [Example 139, 1-{4-[6-Ethyl-8,8-dimethyl-2-(8-oxa-3-azabicyclo[3.2.1]oct-3-yl)-5-oxo-5,6,7,8-tetrahydro-9-oxa-1,3,6-triazabenzocyclohepten-4-yl]-2-fluorophenyl}-3-(6-methoxypyrazin-2-yl)urea] | 3010 | 251 | 721 | >10000
CCN1CC(C)(C)Oc2nc(N3CC4CCC(C3)O4)nc(-c3ccc(NC(=O)Nc4ccc(OC)nn4)c(F)c3)c2C1=O [Example 140, 1-{4-[6-Ethyl-8,8-dimethyl-2-(8-oxa-3-azabicyclo[3.2.1]oct-3-yl)-5-oxo-5,6,7,8-tetrahydro-9-oxa-1,3,6-triazabenzocyclohepten-4-yl]-2-fluorophenyl}-3-(6-methoxypyridazin-3-yl)urea] | 472 | 45 | 507 | >10000
CCN1CC(C)(C)Oc2nc(N3CCOC[C@@H]3C)nc(-c3ccc(NC(=O)Nc4ccc(OC)nc4)c(F)c3)c2C1=O [Example 141, 1-{4-[6-Ethyl-8,8-dimethyl-2-((S)-3-methylmorpholin-4-yl)-5-oxo-5,6,7,8-tetrahydro-9-oxa-1,3,6-triazabenzocyclohepten-4-yl]-2-fluorophenyl}-3-(6-methoxypyridin-3-yl)urea] | 94 | 34 | 19 | 598
CCN1CC(C)(C)Oc2nc(N3CC4CCC(C3)O4)nc(-c3ccc(NC(=O)Nc4cnn(C)c4)c(F)c3)c2C1=O [Example 143, 1-{4-[6-Ethyl-8,8-dimethyl-2-(8-oxa-3-azabicyclo[3.2.1]oct-3-yl)-5-oxo-5,6,7,8-tetrahydro-9-oxa-1,3,6-triazabenzocyclohepten-4-yl]-2-fluorophenyl}-3-(1-methyl-1H-pyrazol-4-yl)urea] | 295 | 19 | 62 | 3180
CCN1CC(C)(C)Oc2nc(N3CC4CCC(C3)O4)nc(-c3ccc(NC(=O)Nc4ccnc(OC)n4)c(F)c3)c2C1=O [Example 144, 1-{4-[6-Ethyl-8,8-dimethyl-2-(8-oxa-3-azabicyclo[3.2.1]oct-3-yl)-5-oxo-5,6,7,8-tetrahydro-9-oxa-1,3,6-triazabenzocyclohepten-4-yl]-2-fluorophenyl}-3-(2-methoxypyrimidin-4-yl)urea] | 2570 | 105 | 142 | >10000
CCN1CC(C)(C)Oc2nc(N3CC4CCC(C3)O4)nc(-c3ccc(NC(=O)Nc4ccc(OC)nn4)cc3)c2C1=O [Example 146, 1-{4-[6-Ethyl-8,8-dimethyl-2-(8-oxa-3-azabicyclo[3.2.1]oct-3-yl)-5-oxo-5,6,7,8-tetrahydro-9-oxa-1,3,6-triazabenzocyclohepten-4-yl]phenyl}-3-(6-methoxypyridazin-3-yl)urea] | 441 | 35 | 82 | >10000
CCN1CC(C)(C)Oc2nc(N3CC4CCC(C3)O4)nc(-c3ccc(NC(=O)Nc4cccc(C(F)(F)F)c4)cc3)c2C1=O [Example 147, 1-{4-[6-Ethyl-8,8-dimethyl-2-(8-oxa-3-azabicyclo[3.2.1]oct-3-yl)-5-oxo-5,6,7,8-tetrahydro-9-oxa-1,3,6-triazabenzocyclohepten-4-yl]phenyl}-3-(3-trifluoromethylphenyl)urea] | 297 | 182 | 28 | >10000
